The record followed here is article PMC12293604, “Anticancer Effect of Nature-Inspired Indolizine-Based Pentathiepines in 2D and 3D Cellular Model” (Cancers, 2025).

Data set [1] concerns MCF7. As to the kind of experiment: Intracellular ROS levels (DCFH-DA), MCF7. The class given is cell-based, human. The conditions noted are these: MCF7, 48 h at IC50 concentration, vs. CTR. How it is done:
(§1) Intracellular ROS levels were quantified using 2′,7′-dichlorodihydrofluorescein diacetate (DCFH-DA) as a fluorescent probe. After 48 h of treatment, cells were collected, rinsed with PBS, and incubated in a PBS solution containing 10 µM DCFH-DA. Following incubation, fluorescence corresponding to oxidized fluorescein was measured using a 530 nm band-pass filter. ROS production was expressed in arbitrary units based on the median fluorescence intensity (MFI).

For data set [2], the system named is MCF7, MDA-MB231, A549 and HCT116 cells. In words: Apoptotic cell death, flow cytometry (sub-G1, PI). The data set is classed as cell-based, human. The conditions noted are these: 48 h treatment at IC50 concentration, vs. untreated controls. How it is done: (§2) The potential of the tested PTE derivatives to induce apoptotic and/or necrotic cell death, as well as to cause alterations in cell cycle distribution, was evaluated following a 48 h exposure to their respective IC50 concentrations, using flow cytometric analysis as previously described. Briefly, the indicated cell lines were seeded in 12-well plates (3 × 10^5 cells/well) and treated 24 h post-seeding. At the end of the treatment period, following harvesting, cells were washed with PBS and fixed in ice-cold 70% ethanol at −20 °C for a minimum duration of 45 min, to assess apoptotic cell death and perform cell cycle analysis. After fixation, cells were washed again with PBS and stained with a propidium iodide (PI)/RNase solution (50 µg/mL PI and 30 U/mL RNase) in PBS for 15 min at room temperature.
(§3) Flow cytometric analysis was performed using a FACScalibur flow cytometer (Becton Dickinson, Milan, Italy), equipped with a 15 mW, 488 nm air-cooled argon ion laser. Data were acquired and analyzed with CellQuestPRO version 5.1 software. PI fluorescence was detected using a 575 nm band-pass filter. The percentage of apoptotic cells was determined by identifying sub-G1 peaks in monoparametric histograms obtained in logarithmic mode. For cell cycle distribution, PI fluorescence was also analyzed with monoparametric histograms, but data were collected in linear mode.
(In general: A flow cytometer gives signals particle by particle.)

In data set [3] the test system is MDA-MB231. In words: MTT cell viability assay, MDA-MB231. As to conditions: Homo sapiens, MDA-MB-231, MDA-MB231, 48h treatment, mean ± S.D. The data set is classed as cell-based. On the procedure:
(§4) The human cancer cell lines MCF7 (HTB-22, breast adenocarcinoma), MDA-MB-231 (HTB-26, breast adenocarcinoma), HCT116 (CCL-247, colorectal carcinoma), and A549 (CRM-CCL-185, lung carcinoma) were obtained from the American Type Culture Collection (ATCC, Manassas, VA, USA). The fibroblast cell line CR9, kindly provided by Dr. Guven, was maintained in ISCOVE medium. HCT116 cells were cultured in Dulbecco’s Modified Eagle Medium (DMEM), whereas A549, MCF7, and MDA-MB-231 cells were maintained in Roswell Park Memorial Institute 1640 (RPMI-1640) medium. All media were supplemented with 10% fetal bovine serum (FBS), 1% L-glutamine, and 0.5% antibiotic mixture (penicillin, streptomycin, and neomycin). Cell cultures were maintained at 37 °C in a humidified atmosphere with 5% CO2, following standard culture protocols. Additionally, for HCT116 cells, the culture medium was further supplemented with 1% sodium pyruvate and 1% non-essential amino acids.
(§5) To evaluate the impact of the tested PTEs on cell viability, a colorimetric MTT assay was performed as previously described. Briefly, cells were seeded in 96-well microplates at initial densities of 5 × 10^3 cells per well for the MCF7, MDA-MB231, and A549 cell lines, and 4 × 10^3 cells per well for HCT116 cells. After an initial 24 h incubation period to allow for cell attachment and growth, the cultures were treated with different concentrations of PTEs (0.25–20 µM). Following 48 h of treatment, 50 μL of MTT solution (2 mg/mL in PBS) was added to each well, and the plates were incubated at 37 °C for 3 h to allow for MTT reduction by metabolically active cells. The resulting formazan crystals were solubilized, and cell viability was measured by recording the absorbance at 570 nm using an iMark Microplate Reader (BIORAD, Segrate, Milan, Italy). The cytotoxic effectiveness of the compounds was expressed as IC50 values, which were calculated from dose–response curves fitted with non-linear regression analysis using Calcusyn version 1.1.4. software (Biosoft, Cambridge, UK).

Data set [4] has as its system HCT116. In words: Necrotic cell death, flow cytometry (PI without fixation), HCT116. The data set is classed as cell-based, human. As to conditions: HCT116, 48 h treatment at IC50 concentration. On the procedure: as §2, §3
Necrotic cell death was assessed by omitting the ethanol fixation step from the staining protocol, thereby enabling propidium iodide (PI) to penetrate membrane-compromised cells, indicative of necrosis.

For the next data set, the system named is A549. As to the kind of experiment: MTT cell viability assay, A549. The data set is classed as cell-based. As to conditions: Homo sapiens, A549, 48h treatment, mean ± S.D. How it is done: as §4, §5
(In general: Tetrazolium assays rely on reduction of a dye to a coloured formazan, in cell work by metabolically active cells.)

Data set [5] concerns HCT116. In words: Hydrosulfide production (DNS-N3 probe), HCT116. The class given is cell-based, human. The conditions noted are these: HCT116, 48 h at IC50 concentration. How it is done: (§6) PTEs-induced sulfide production was evaluated using dansyl azide (DNS-N3) as a probe. DNS-N3 is non-fluorescent itself, while in the presence of hydrosulfide, the azide transforms into the dansyl amide and fluorescence is switched on. After 48 h of treatment, cells were harvested, washed with PBS, and incubated in a PBS solution containing 200 μM DNS-N3. Following 30 min incubation at 37 °C, fluorescence increase was measured through a 575 nm band-pass filter. The levels of hydrosulfide production were assessed and reported in arbitrary units, calculated from the median fluorescence intensity (MFI) measurements. For all flow cytometric analyses, untreated cells (i.e., not exposed to PTE compounds) were used as negative controls.

In data set [6] the test system is MCF7, MDA-MB231, A549 and HCT116 cell lines. In words: Hydrosulfide production (DNS-N3 probe), summary across cell lines. The data set is classed as cell-based, human. The conditions noted are these: 48 h at IC50 concentration, all cell lines. On the procedure:
as §6

The test system of data set [7] is MCF7. As to the kind of experiment: MTT cell viability assay, MCF7. The data set is classed as cell-based. As to conditions: Homo sapiens, MCF7, 48h treatment, mean ± S.D. On the procedure: as §4, §5
Data set [8] concerns HCT116. As to the kind of experiment: Cell cycle distribution, flow cytometry, HCT116. The class given is cell-based, human. As to conditions: HCT116, 48 h at equitoxic (IC50) concentrations. On the procedure:
as §2, §3

For data set [9], the system named is MDA-MB231. As to the kind of experiment: Intracellular ROS levels (DCFH-DA), MDA-MB231. As to conditions: MDA-MB231, 48 h at IC50 concentration, vs. CTR. The class given is cell-based, human. How it is done: as §1
Data set [10] has as its system MCF7, MDA-MB231, A549 and HCT116 cells. As to the kind of experiment: Intracellular ROS levels (DCFH-DA), summary across cell lines. The class given is cell-based, human. As to conditions: 48 h at IC50 concentration, four cell lines. On the procedure: as §1
Data set [11] has as its system MCF7, MDA-MB-231, A549, and HCT116 cells. In words: MTT cell viability assay, summary across the cell line panel. The class given is cell-based, human. The conditions noted are these: 48 h treatment, across tested cell lines. On the procedure: The fibroblast cell line CR9, kindly provided by Dr. Guven, was maintained in ISCOVE medium. […] All media were supplemented with 10% fetal bovine serum (FBS), 1% L-glutamine, and 0.5% antibiotic mixture (penicillin, streptomycin, and neomycin). Cell cultures were maintained at 37 °C in a humidified atmosphere with 5% CO2, following standard culture protocols. Additionally, for HCT116 cells, the culture medium was further supplemented with 1% sodium pyruvate and 1% non-essential amino acids.
as §5, with “Following 48 h of treatment, 50 μL of MTT solution (2 mg/mL in PBS) was added to each well, and the plates were incubated at 37 °C for 3 h to allow for MTT reduction by metabolically active cells.” left out

The test system of data set [12] is CR9 human fibroblast cells. As to the kind of experiment: MTT cell viability assay, CR9 fibroblasts. The conditions noted are these: 48h treatment, mean ± S.D. The class given is cell-based. On the procedure:
as §4, §5

Data set [13] has as its system MDA-MB231. In words: Cell cycle distribution, flow cytometry, MDA-MB231. The class given is cell-based, human. The conditions noted are these: MDA-MB231, 48 h at equitoxic (IC50) concentrations. How it is done: as §2, §3
Data set [14] deals with HCT116. In words: MTT cell viability assay, HCT116. The class given is cell-based. As to conditions: Homo sapiens, HCT-116, HCT116, 48h treatment, mean ± S.D. On the procedure:
as §4, §5

Usually IC50 stands for the point on the concentration scale where inhibition reaches its midpoint. Read a low IC50 as higher potency. As to `Cc1c2c(c3ccccn13)SSSSS2` [2^Me], the “increase in ROS production” value in the data set with MCF7 [1] and in the data set with MDA-MB231 [9] was “statistically significant” throughout. The apoptotic cell death entry in [2] is recorded as “most potent inducers of apoptosis”. In addition, the IC50 was determined as 1450 ± 40 nM with MDA-MB231 [3]; 2540 ± 270 nM with A549; 4770 ± 140 nM in the data set on MCF7 [7]; 7910 ± 320 nM in data set [12]; 2270 ± 340 nM in the data set with HCT116 [14]. Besides, in the data set with HCT116 [4], the “necrosis relative to apoptosis” value is “higher levels of necrosis relative to apoptosis”. For the same compound, the sulfide increase result in the data set with HCT116 [5] is “did not induce sulfide increase”. Moreover, in [6], the “sulfide production (in words)” value is “most potent inducers of sulfide production”. In addition, the “cell cycle shift: decrease in the G0/G1 phase population with G2/M phase accumulation” value in the data set on HCT116 [8] and in the data set on MDA-MB231 [13] was “triggered similar effects” each time. The “ROS production (ranking in words)” value in [10] was “better ROS producers”. The “cytotoxic potency (in words)” value in data set [11] is listed as “noteworthy efficacy”; in data set [11] (listed as 2^PG), “highest cytotoxic potency”; in data set [11] (listed as 2^Ph) it was “lowest cytotoxic activity”.
